Structures can show the parent of a compound that is named as a salt.
How the values were obtained:
[1] = biological target: T1, RGS4(WT) (Rattus norvegicus, UniProt P49799); test: Malachite green assay of RGS4-stimulated Gαi GTPase activity; assay type: biochemical; conditions: for Mean absorbance at 642 nm, positive control wells: 10 μM final; for IC50 / Inhibition of RGS4 (in words): malachite green assay; for IC50: RGS4 200 nM final, concentration-response, read-out: IC50 against RGS4(WT); for Inhibition of RGS4 (in words): screen hits
T1 sequence (P49799 51-205): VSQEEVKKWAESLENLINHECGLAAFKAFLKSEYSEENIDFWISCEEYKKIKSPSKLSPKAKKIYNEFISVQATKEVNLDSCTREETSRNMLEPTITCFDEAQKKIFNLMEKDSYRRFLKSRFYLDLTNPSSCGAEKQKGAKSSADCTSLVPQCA
Experimental: Stock solutions of each of the 3 components of the developing solution were prepared, which were stable for long-term storage [19]. Malachite solution was prepared by first diluting concentrated sulfuric acid 1:5 in distilled water. Once the solution cooled to 25° C., malachite solution was prepared by dissolving 0.44 g of malachite green oxalate (Alfa Aesar; Ward Hill, Mass.) in 360 mL diluted acid and stored at 25° C. Molybdate solution, containing 7.5% ammonium molybdate tetrahydrate (Alfa Aesar; Ward Hill, Mass.), was prepared in distilled water and stored at 4° C. Tween-20 solution, used to maintain solubility of the phosphate-molybdate-malachite complex, was prepared as 11% (v/v) Tween-20 in distilled water. On the day of use, 2.5 mL molybdate solution and 0.2 mL Tween-20 solution were added to 10 mL of malachite solution and mixed quickly to avoid precipitation of malachite. The final ratio of the Developing Solution (DS) was 50:12.5:1 (malachite:molybdate:Tween-20). The peak absorbance was determined by a 2 nm step wavelength scan, using 50 μM NaH2PO4 at pH 8.0 as the negative control.
The malachite green assay involved 5 components, with a 1 min spin at 100×g between each addition. For time-course experiments, the first component was 10 μL Malachite Green Assay Buffer (MGB; 50 mM HEPES at pH 7.5, 100 mM NaCl, 5 mM EDTA, 10 mM MgCl2, 0.01% lubrol) into a clear 384-well plate (ThermoFisher Scientific; Waltham, Mass.) using a MultiDrop dispenser (PerkinElmer; Waltham, Mass.). The second component dispensed was 10 μL of a 4× stock of RGS4, typically 200 nM to 1.6 μM with the target final concentration of 50 nM to 400 nM, diluted in MGB. After a 30 min incubation, 10 μL of the third component, 4× stock of Gαi diluted in MGB, was dispensed (typically between 4 μM and 80 μM with a desired final concentration 1 μM to 20 μM). After a minimum of 5 min incubation, 10 μL of the fourth component, 4×GTP diluted in MGB, was added at 10 minute intervals from 1-110 minutes. 4×GTP concentrations varied between 0.2 mM and 2.4 mM, with a target final concentration of 50 μM to 600 μM. To terminate the reaction, 10 μL of DS was added to each well using a Microlab Star liquid handling robot (Hamilton Robotics; Reno, Nev.), to achieve a final ratio 4:1 (sample:developing solution). Following the spin, the plate was incubated for 25 min before being read at 642 nm for absorbance using an EnVision plate reader (PerkinElmer; Waltham, Mass.).
Malachite green compound activity and Z-factor analysis conducted in 384-well plates utilized optimized parameters as discerned from the time-course experiments. 10 μL of 4× compound or MGB was dispensed into appropriate wells. For single point assay, 160 μM compound was used, and for dose-response assays a series of ½ log dilutions from 100 μM final to 316 μM final was used. 10 μL of the optimized 4×RGS4 concentration, 0.8 μM in MGB, was dispensed into all wells. After a spin down at 100×g for 1 min, the assay plate was incubated at 25° C. for 30 min. 10 μL of the optimized Gαi concentration, 20 μM in MGB, was dispensed to each well and incubated at 25° C. for 5 min. 10 μL of the optimized 4×GTP, 600 μM in MGB, was then added to the samples. After spinning the samples down at 100×g for 1 min, the samples were incubated at 25° C. for 75 min. The samples were then stamped with 10 μL of DS and incubated for 25 min before reading absorbance at 642 nm.
1536-well Z-factor analysis and compound library screen were accomplished largely as described for 384-well plates. Initial screen and Z-factor determination was performed in a final concentration of 5.5% dimethylsulfoxide. For 1536-well assays NUNC clear plates were used (ThermoFisher Scientific; Waltham, Mass.). Each component was dispensed as 1.8 μL samples into each well using a FlexDrop (PerkinElmer; Waltham, Mass.).

[2] = biological target: T2, RGS4(Δ7) mutant (Rattus norvegicus, UniProt P49799, C132A/C148A/C183A/C197A/C204A/C71A/C95A); test: Malachite green assay counter screen against cysteine-null RGS4(Δ7) mutant; assay type: biochemical; conditions: for IC50: concentration-response; for Inhibition of RGS4(Δ7) mutant (in words): screen hits
T2 construct: fused to the N-terminus of an RGS4 construct containing amino acids 51-205; 10x His tag (N, cleaved yes); TEV protease recognition site (N, cleaved yes); made in house; host or cells: E. coli BL21-DE3 (vector pMALC2H10T)
T2 sequence (P49799 51-205 C71A/C95A/C132A/C148A/C183A/C197A/C204A limits assumed): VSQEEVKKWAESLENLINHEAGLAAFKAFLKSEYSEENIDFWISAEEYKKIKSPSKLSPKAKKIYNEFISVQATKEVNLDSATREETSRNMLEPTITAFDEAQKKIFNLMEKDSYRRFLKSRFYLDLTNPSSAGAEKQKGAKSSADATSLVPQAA
Text: Rat RGS4, sharing 97% sequence identity with human RGS4, and the cysteine to alanine mutant were expressed as fusion proteins of maltose binding protein (MBP), a 10× His tag, and a TEV protease recognition site fused to the N-terminus of an RGS4 construct containing amino acids 51-205, in the vector pMALC2H10T in BL21-DE3 bacteria (Stratagene; Santa Clara, Calif.). The single cysteine-null Δ51-RGS4 construct was generated by site-directed mutagenesis as described previously Expression and purification were performed as described previously. Purified protein was incubated with TEV protease at a molar ratio of 10:1 (fusion protein:TEV protease) overnight at 4° C. The cleaved Δ51-RGS4 was then isolated by purification over an ANX column (GE Healthcare; Fairfield, Conn.) in 50 mM HEPES at pH6.8 and 50 mM NaCl. The flow through, containing the ˜99% Δ51-RGS4 as determined by SDS-PAGE gel, was then collected and concentrated using a YM-10 centrifugal concentrator (Millipore; Billerica, Mass.). The concentration of Δ51-RGS4 was calculated based on the absorbance at 280 nm utilizing a Take-3 plate (Biotek; Winnoski, Vt.) in a Synergy 2 plate reader (Biotek; Winnoski, Vt.).
Stock solutions of each of the 3 components of the developing solution were prepared, which were stable for long-term storage. Malachite solution was prepared by first diluting concentrated sulfuric acid 1:5 in distilled water. Once the solution cooled to 25° C., malachite solution was prepared by dissolving 0.44 g of malachite green oxalate (Alfa Aesar; Ward Hill, Mass.) in 360 mL diluted acid and stored at 25° C. Molybdate solution, containing 7.5% ammonium molybdate tetrahydrate (Alfa Aesar; Ward Hill, Mass.), was prepared in distilled water and stored at 4° C. Tween-20 solution, used to maintain solubility of the phosphate-molybdate-malachite complex, was prepared as 11% (v/v) Tween-20 in distilled water. On the day of use, 2.5 mL molybdate solution and 0.2 mL Tween-20 solution were added to 10 mL of malachite solution and mixed quickly to avoid precipitation of malachite. The final ratio of the Developing Solution (DS) was 50:12.5:1 (malachite:molybdate:Tween-20). The peak absorbance was determined by a 2 nm step wavelength scan, using 50 μM NaH2PO4 at pH 8.0 as the negative control.
Malachite green compound activity and Z-factor analysis conducted in 384-well plates utilized optimized parameters as discerned from the time-course experiments. 10 μL of 4× compound or MGB was dispensed into appropriate wells. For single point assay, 160 μM compound was used, and for dose-response assays a series of ½ log dilutions from 100 μM final to […] final was used. 10 μL of the optimized 4×RGS4 concentration, 0.8 μM in MGB, was dispensed into all wells. After a spin down at 100×g for 1 min, the assay plate was incubated at 25° C. for 30 min. 10 μL of the optimized Gαi concentration, 20 μM in MGB, was dispensed to each well and incubated at 25° C. for 5 min. 10 μL of the optimized 4×GTP, 600 μM in MGB, was then added to the samples. […] The samples were then stamped with 10 μL of DS and incubated for 25 min before reading absorbance at 642 nm.
Initial hits were confirmed by single point malachite green assay at 40 μM compound. […] This control would detect compounds that either interrupt the detected complex or reduce the molybdate resulting in peak shift outside of the desired wavelength. […] Compounds that increased the predicted absorbance were carried through, as they would indicate false negatives in the assay. […]

| Mean absorbance at 642 nm, positive control wells ([1]; 384-well plate, 192 wells, negative control mean 1.74) | Mean absorbance at 642 nm, positive control wells ([1]; 1536-well plate, 5.5% DMSO, 128 wells, negative control mean 0.67) | Compound | IC50 [1] [µM] | Inhibition of RGS4 (in words) [1] | IC50 [2] [µM] | Inhibition of RGS4(Δ7) mutant (in words) [2] |
| --- | --- | --- | --- | --- | --- | --- |
| 0.92 | 0.30 | Cc1ccc(-n2sc(=O)n(Cc3ccc(F)cc3)c2=O)cc1 [CCG-50014, reference compound] | – | – | – | – |
| – | – | CC(C)=CCC[C@]1(C)C=Cc2c(O)c3c(c(CC=C(C)C)c2O1)O[C@]12C(=C[C@@H]4C[C@H]1C(C)(C)O[C@@]2(C/C=C(/C)C(=O)O)C4=O)C3=O [UI-1907, gambogic acid] | 16 | inhibitors | 51 | inhibitors |
| – | – | CC(=O)Oc1c2c(c(CC=C(C)C)c3c1C(=O)C1=C[C@@H]4C[C@H]5C(C)(C)OC(C/C=C(\C)C(=O)O)(C4=O)[C@@]15O3)O[C@](C)(CCC=C(C)C)C=C2 [UI-2034, acetyl-isogambogic acid] | – | inhibitors | – | inhibitors |
| – | – | CC1=C(O)C(=O)C=C2C1=CC=C1[C@@]2(C)CC[C@@]2(C)[C@@H]3C[C@](C)(C(=O)O)CC[C@]3(C)CC[C@]12C [UI-1590, celastrol] | 0.724 | – | 88 | – |
| – | – | C[n+]1cc2c3c(ccc2c2ccc4cc5c(cc4c21)OCO5)OCO3 [UI-5, sanguinarium sulfate] | 126 | – | 454 | – |

From patent publication US20140303199A1, “INHIBITORS OF RGS PROTEINS” (priority 2013, published 2014)
